This is an account of results in patent US20250059180A1 (DONG WHA PHARM. CO., LTD., priority 2022, published 2025).

Where a name gives a salt, the structure may show the parent alone. Read-outs that look alike come from different tables or passages of the source. Bounds are passed on as bounds.

For one test, the target named is EZH1 (Homo sapiens, UniProt Q92800). Description: AlphaLISA evaluation of inhibitory activity against EZH1. The following applies: DMSO control; for Enzyme inhibition % EZH1 5 nM: test material 5 nM; for Enzyme inhibition % EZH1 10 nM: test material 10 nM. It is filed as biochemical. How it is done: (§1) In order to confirm the EZH1 and/or EZH2 activity inhibitory effect of the 1,3-benzodioxole derivative compounds represented by chemical formula I of the present invention, the activity was measured using an AlphaLISA test method.
(§2) The test material dissolved in dimethylsulfoxide (DMSO) was diluted in a test solution (20 mM Tris pH 8.0, 0.1% BSA, 0.01% Triton X-100, 0.5 mM DTT) according to a final treatment concentration (5 nM or 10 nM), mixed with EZH1 and EZH2, respectively, and then added with histone H3 peptide and S-adenosylmethionine (SAM) to initiate an enzyme reaction. An acceptor bead was added thereto after reaction for two hours and subjected to an additional reaction for one hour, after which a donor bead was added thereto. After an additional reaction for 30 minutes, the reaction was completed. Activity was measured using the Magellan program on a Spark10M instrument. DMSO was used as a control group, an inhibition rate of enzyme activity was calculated using the following equation, and the results thereof are shown in Table 1 below.
(§3) Activity inhibition rate (%)=(1−(Group treated with test material/Control group))*100
For orientation: Bead proximity is the source of the signal in Alpha formats.

The target in another test is EZH2 (Homo sapiens, UniProt Q15910). Description: AlphaLISA evaluation of inhibitory activity against EZH2. Type of test: biochemical. Conditions: DMSO control; for Enzyme inhibition % EZH2 5 nM: test material 5 nM; for Enzyme inhibition % EZH2 10 nM: test material 10 nM. The method, then: as §1, §2, §3
In test [1] the test system is Pfeiffer cells, lymphoma cells having EZH2 mutation (A677G). Description: Proliferation inhibition of cells of hematologic malignancies (CCK-8, 11 days). The following applies: 11 days culture, read-out: Cell proliferation inhibitory effect (IC50). Type of test: cell-based. A digest of the protocol: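 Pfeiffer lymphoma cells (EZH2 A677G) in RPMI1640 with 10% FBS were seeded at 10,000 cells/well and exposed to test material for 11 days, with compound replaced every 3–4 days. Viability was read by CCK-8 absorbance at 450 nm, and IC50 was derived by non-linear regression curve fitting.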

EZH2, sequence (Q15910 whole entry): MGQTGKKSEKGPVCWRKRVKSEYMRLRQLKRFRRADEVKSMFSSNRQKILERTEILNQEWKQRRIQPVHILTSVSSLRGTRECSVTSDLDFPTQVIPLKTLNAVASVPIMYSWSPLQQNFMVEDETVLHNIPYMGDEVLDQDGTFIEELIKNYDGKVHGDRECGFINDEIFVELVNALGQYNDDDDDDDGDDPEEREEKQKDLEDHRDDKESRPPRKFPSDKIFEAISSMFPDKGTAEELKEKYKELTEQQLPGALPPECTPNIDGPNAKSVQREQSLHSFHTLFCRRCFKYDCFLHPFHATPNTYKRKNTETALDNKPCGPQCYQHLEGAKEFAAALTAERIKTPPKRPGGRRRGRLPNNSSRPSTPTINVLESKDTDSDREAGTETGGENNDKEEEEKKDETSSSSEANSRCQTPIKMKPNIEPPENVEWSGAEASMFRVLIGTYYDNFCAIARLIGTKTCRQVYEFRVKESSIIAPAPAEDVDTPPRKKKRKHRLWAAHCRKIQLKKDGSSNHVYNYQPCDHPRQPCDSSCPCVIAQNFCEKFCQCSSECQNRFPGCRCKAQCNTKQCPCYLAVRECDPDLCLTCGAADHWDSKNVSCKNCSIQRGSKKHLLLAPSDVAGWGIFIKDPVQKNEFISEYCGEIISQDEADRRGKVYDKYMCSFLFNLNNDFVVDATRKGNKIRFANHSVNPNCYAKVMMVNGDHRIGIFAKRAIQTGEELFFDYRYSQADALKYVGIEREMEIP
EZH2, sequence (O75530 whole entry partner): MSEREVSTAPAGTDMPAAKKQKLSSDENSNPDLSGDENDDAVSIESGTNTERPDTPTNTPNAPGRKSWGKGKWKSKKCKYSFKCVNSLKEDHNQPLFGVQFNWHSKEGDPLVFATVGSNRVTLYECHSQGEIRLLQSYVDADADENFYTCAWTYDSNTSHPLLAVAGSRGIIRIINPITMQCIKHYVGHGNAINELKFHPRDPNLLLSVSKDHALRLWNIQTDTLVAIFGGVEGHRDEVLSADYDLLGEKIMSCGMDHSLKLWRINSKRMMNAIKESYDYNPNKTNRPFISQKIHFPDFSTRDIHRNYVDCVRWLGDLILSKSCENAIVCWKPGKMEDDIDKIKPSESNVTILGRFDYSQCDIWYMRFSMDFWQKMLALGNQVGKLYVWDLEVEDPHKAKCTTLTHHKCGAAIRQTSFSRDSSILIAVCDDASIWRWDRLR
EZH2, sequence (Q15022 whole entry partner): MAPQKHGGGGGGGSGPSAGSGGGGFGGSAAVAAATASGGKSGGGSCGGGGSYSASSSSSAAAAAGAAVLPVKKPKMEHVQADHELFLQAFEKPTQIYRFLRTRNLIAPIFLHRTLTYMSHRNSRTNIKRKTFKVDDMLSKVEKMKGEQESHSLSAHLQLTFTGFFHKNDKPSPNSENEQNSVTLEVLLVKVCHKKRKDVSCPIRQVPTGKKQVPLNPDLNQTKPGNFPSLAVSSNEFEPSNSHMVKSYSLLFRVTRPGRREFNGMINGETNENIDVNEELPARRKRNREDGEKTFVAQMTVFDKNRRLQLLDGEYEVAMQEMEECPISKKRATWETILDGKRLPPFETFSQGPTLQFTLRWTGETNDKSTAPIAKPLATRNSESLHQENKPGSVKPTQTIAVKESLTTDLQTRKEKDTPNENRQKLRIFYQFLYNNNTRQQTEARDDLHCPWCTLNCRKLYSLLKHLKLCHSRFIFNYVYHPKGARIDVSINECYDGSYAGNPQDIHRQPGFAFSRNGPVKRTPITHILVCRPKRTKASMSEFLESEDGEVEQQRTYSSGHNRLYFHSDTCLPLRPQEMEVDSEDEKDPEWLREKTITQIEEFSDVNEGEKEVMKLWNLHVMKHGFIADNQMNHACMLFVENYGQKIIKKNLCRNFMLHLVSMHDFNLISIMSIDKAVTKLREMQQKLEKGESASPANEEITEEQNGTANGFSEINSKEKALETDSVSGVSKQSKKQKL
EZH1, sequence (Q92800 whole entry): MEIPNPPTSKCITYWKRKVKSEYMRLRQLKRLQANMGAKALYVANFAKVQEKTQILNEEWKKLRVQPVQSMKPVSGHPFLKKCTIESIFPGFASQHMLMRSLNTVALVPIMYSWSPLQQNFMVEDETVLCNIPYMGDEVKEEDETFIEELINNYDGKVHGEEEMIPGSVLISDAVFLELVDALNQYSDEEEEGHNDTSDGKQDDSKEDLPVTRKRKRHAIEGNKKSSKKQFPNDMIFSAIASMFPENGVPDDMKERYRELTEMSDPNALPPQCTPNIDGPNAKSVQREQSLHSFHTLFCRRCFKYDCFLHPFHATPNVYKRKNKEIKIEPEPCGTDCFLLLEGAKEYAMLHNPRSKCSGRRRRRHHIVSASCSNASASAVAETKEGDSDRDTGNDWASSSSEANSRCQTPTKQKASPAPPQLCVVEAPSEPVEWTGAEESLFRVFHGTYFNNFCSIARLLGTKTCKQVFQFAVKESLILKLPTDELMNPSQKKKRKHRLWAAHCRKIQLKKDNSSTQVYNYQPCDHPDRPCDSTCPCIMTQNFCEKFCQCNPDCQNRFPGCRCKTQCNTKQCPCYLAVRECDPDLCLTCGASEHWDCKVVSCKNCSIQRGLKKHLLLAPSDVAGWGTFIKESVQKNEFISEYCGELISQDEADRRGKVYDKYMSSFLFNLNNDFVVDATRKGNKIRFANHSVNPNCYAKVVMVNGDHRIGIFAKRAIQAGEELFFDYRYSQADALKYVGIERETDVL
EZH1, sequence (O75530 whole entry partner): as the sequence (O75530 whole entry partner) above
EZH1, sequence (Q15022 whole entry partner): as the sequence (Q15022 whole entry partner) above

`CSc1cc(C)[nH]c(=O)c1CNC(=O)c1cc(-c2ccc(N3CCOCC3)nc2)c2c(c1C)OC(C)(C1CCN(CC(F)(F)F)CC1)O2` (centres unmarked) [Compound 62, 2,4-dimethyl-N-((6-methyl-4-(methylthio)-2-oxo-1,2-dihydropyridin-3-yl)methyl)-7-(6-morpholinopyridin-3-yl)-2-(1-(2,2,2-trifluoro)piperidin-4-yl)benzo[d][1,3]dioxole-5-carboxamide]: at EZH1, the “Enzyme inhibition % EZH1 5 nM” value turned out to be 66.9% and the “Enzyme inhibition % EZH1 10 nM” value is 81.8%. Further, at EZH2, the “Enzyme inhibition % EZH2 5 nM” value stood at 93.6% and the “Enzyme inhibition % EZH2 10 nM” value was found to be 99.4%. Moreover, the IC50 in test [1] was not above 10 nM.

Take `CSc1cc(C)[nH]c(=O)c1CNC(=O)c1cc(-c2cnc(N3CCOCC3)nc2)c2c(c1C)OC(C)(C1CCN(CC(F)(F)F)CC1)O2` (centres unmarked) [Compound 69, 2,4-dimethyl-N-((6-methyl-4-(methylthio)-2-oxo-1,2-dihydropyridin-3-yl)methyl)-7-(2-morpholinopyrimidin-5-yl)-2-(1-(2,2,2-trifluoro)piperidin-4-yl)benzo[d][1,3]dioxole-5-carboxamide]: on EZH1, the “Enzyme inhibition % EZH1 5 nM” value is 71.9% and the “Enzyme inhibition % EZH1 10 nM” value stood at 87.9%. At EZH2, the “Enzyme inhibition % EZH2 5 nM” value was 98.2% and the “Enzyme inhibition % EZH2 10 nM” value is listed as 99.6%. Also, the IC50 in test [1] was not above 10 nM. Turning to `CSc1cc(C)[nH]c(=O)c1CNC(=O)c1cc(-c2ccc3occc3c2)c2c(c1C)OC(C)(C1CCN(CC(F)(F)F)CC1)O2` (centres unmarked) [Compound 96, 7-(benzofuran-5-yl)-2,4-dimethyl-N-((6-methyl-4-(methylthio)-2-oxo-1,2-dihydropyridin-3-yl)methyl)-2-(1-(2,2,2-trifluoroethyl)piperidin-4-yl)benzo[d][1,3]dioxole-5-carboxamide], the IC50 in test [1] (Homo sapiens, Pfeiffer, 264 h) is not below 100 nM. Take `CSc1cc(C)[nH]c(=O)c1CNC(=O)c1cc(-c2ccc3occc3c2)c2c(c1C)OC(C)(C1CCN(CC(F)F)CC1)O2` (centres unmarked) [Compound 97, 7-(benzofuran-5-yl)-2-(1-(2,2-difluoroethyl)piperidin-4-yl)-2,4-dimethyl-N-((6-methyl-4-(methylthio)-2-oxo-1,2-dihydropyridin-3-yl)methyl)benzo[d][1,3]dioxole-5-carboxamide]: in test [1] (Homo sapiens, Pfeiffer, 264 h), the IC50 was not below 100 nM. `CCCCN(C)c1ccc(-c2cc(C(=O)NCc3c(SC)cc(C)[nH]c3=O)c(C)c3c2OC(C)(C2CCN(CC(F)(F)F)CC2)O3)cn1` (centres unmarked) [Compound 98, 7-(6-(butyl(methyl)amino)pyridin-3-yl)-2,4-dimethyl-N-((6-methyl-4-(methylthio)-2-oxo-1,2-dihydropyridin-3-yl)methyl)-2-(1-(2,2,2-trifluoroethyl)piperidin-4-yl)benzo[d][1,3]dioxole-5-carboxamide]: the IC50 in test [1] (Homo sapiens, Pfeiffer, 264 h) was not below 100 nM. `CCCCN(C)c1ncc(-c2cc(C(=O)NCc3c(SC)cc(C)[nH]c3=O)c(C)c3c2OC(C)(C2CCN(CC(F)(F)F)CC2)O3)cn1` (centres unmarked) [Compound 99]: the IC50 in test [1] (Homo sapiens, Pfeiffer, 264 h) was not below 100 nM. With `CSc1cc(C)[nH]c(=O)c1CNC(=O)c1cc(-c2ccc(N3C[C@@H](C)O[C@@H](C)C3)nc2)c2c(c1C)OC(C)([C@H]1CC[C@H](N)CC1)O2` (stereo partly drawn) [Compound 100, 2-(trans-4-aminocyclohexyl)-7-(6-((2S,6R)-2,6-dimethylmorpholino)pyridin-3-yl)-2,4-dimethyl-N-((6-methyl-4-(methylthio)-2-oxo-1,2-dihydropyridin-3-yl)methyl)benzo[d][1,3]dioxole-5-carboxamide hydrochloride salt], the IC50 in test [1] (Homo sapiens, Pfeiffer, 264 h) is not above 10 nM. Take `CSc1cc(C)[nH]c(=O)c1CNC(=O)c1cc(-c2ccc(N3C[C@@H](C)O[C@@H](C)C3)nc2)c2c(c1C)OC(C)([C@H]1CC[C@H](N3CC(O)C3)CC1)O2` (stereo partly drawn) [Compound 101, 7-(6-((2S,6R)-2,6-dimethylmorpholino)pyridin-3-yl)-2-(trans-4-(3-hydroxyazetidin-1-yl)cyclohexyl)-2,4-dimethyl-N-((6-methyl-4-(methylthio)-2-oxo-1,2-dihydropyridin-3-yl)methyl)benzo[d][1,3]dioxole-5-carboxamide]: the IC50 in test [1] (Homo sapiens, Pfeiffer, 264 h) was not above 10 nM. Regarding `CSc1cc(C)[nH]c(=O)c1CNC(=O)c1cc(-c2ccc(N3C[C@@H](C)O[C@@H](C)C3)nc2)c2c(c1C)OC(C)([C@H]1CC[C@H](N3CC(OCC(F)(F)F)C3)CC1)O2` (some centres unmarked) [Compound 102], the IC50 in test [1] (Homo sapiens, Pfeiffer, 264 h) was 10 to 100 nM. `CSc1cc(C)[nH]c(=O)c1CNC(=O)c1cc(-c2ccc(N3C[C@@H](C)O[C@@H](C)C3)nc2)c2c(c1C)OC(C)([C@H]1CC[C@H](N3CC(OCC(F)F)C3)CC1)O2` (stereo partly drawn) [Compound 103, 2-(trans-4-(3-(2,2-difluoroethoxy)azetidin-1-yl)cyclohexyl)-7-(6-((2S,6R)-2,6-dimethylmorpholino)pyridin-3-yl)-2,4-dimethyl-N-((6-methyl-4-(methylthio)-2-oxo-1,2-dihydropyridin-3-yl)methyl)benzo[d][1,3]dioxole-5-carboxamide]: the IC50 in test [1] (Homo sapiens, Pfeiffer, 264 h) was not above 10 nM. Take `CSc1cc(C)[nH]c(=O)c1CNC(=O)c1cc(-c2ccc(N3C[C@@H](C)O[C@@H](C)C3)nc2)c2c(c1C)OC(C)([C@H]1CC[C@H](N3CC(OC(C)C)C3)CC1)O2` (stereo partly drawn) [Compound 105, 7-(6-((2S,6R)-2,6-dimethylmorpholino)pyridin-3-yl)-2-(trans-4-(3-isopropoxyazetidin-1-yl)cyclohexyl)-2,4-dimethyl-N-((6-methyl-4-(methylthio)-2-oxo-1,2-dihydropyridin-3-yl)methyl)benzo[d][1,3]dioxole-5-carboxamide]: in test [1] (Homo sapiens, Pfeiffer, 264 h), the IC50 was not below 100 nM.

Consider `COC1CN([C@H]2CC[C@H](C3(C)Oc4c(-c5ccc(N6C[C@@H](C)O[C@@H](C)C6)nc5)cc(C(=O)NCc5c(SC)cc(C)[nH]c5=O)c(C)c4O3)CC2)C1` (stereo partly drawn) [Compound 106, 7-(6-((2S,6R)-2,6-dimethylmorpholino)pyridin-3-yl)-2-(trans-4-(3-methoxyazetidin-1-yl)cyclohexyl)-2,4-dimethyl-N-((6-methyl-4-(methylthio)-2-oxo-1,2-dihydropyridin-3-yl)methyl)benzo[d][1,3]dioxole-5-carboxamide], for which the IC50 in test [1] (Homo sapiens, Pfeiffer, 264 h) is not above 10 nM. Regarding `CSc1cc(C)[nH]c(=O)c1CNC(=O)c1cc(-c2ccc(N3C[C@@H](C)O[C@@H](C)C3)nc2)c2c(c1C)OC(C)([C@H]1CC[C@H](N(C)CC(F)F)CC1)O2` (some centres unmarked) [Compound 109], the IC50 in test [1] (Homo sapiens, Pfeiffer, 264 h) was not above 10 nM. For the compound `CSc1cc(C)[nH]c(=O)c1CNC(=O)c1cc(-c2ccc(N3C[C@@H](C)O[C@@H](C)C3)nc2)c2c(c1C)OC(C)([C@H]1CC[C@H](N(C)C(C)C)CC1)O2` (stereo partly drawn) [Compound 110, 7-(6-((2S,6R)-2,6-dimethylmorpholino)pyridin-3-yl)-2-(trans-4-(isopropyl(methyl)amino)cyclohexyl)-2,4-dimethyl-N-((6-methyl-4-(methylthio)-2-oxo-1,2-dihydropyridin-3-yl)methyl)benzo[d][1,3]dioxole-5-carboxamide], in test [1] (Homo sapiens, Pfeiffer, 264 h), the IC50 is not above 10 nM. Take `CCN(C)[C@H]1CC[C@H](C2(C)Oc3c(-c4ccc(N5C[C@@H](C)O[C@@H](C)C5)nc4)cc(C(=O)NCc4c(SC)cc(C)[nH]c4=O)c(C)c3O2)CC1` (stereo partly drawn) [Compound 111, 7-(6-((2S,6R)-2,6-dimethylmorpholino)pyridin-3-yl)-2-(trans-4-(ethyl(methyl)amino)cyclohexyl)-2,4-dimethyl-N-((6-methyl-4-(methylthio)-2-oxo-1,2-dihydropyridin-3-yl)methyl)benzo[d][1,3]dioxole-5-carboxamide]: the IC50 in test [1] (Homo sapiens, Pfeiffer, 264 h) was not above 10 nM. Consider `CSc1cc(C)[nH]c(=O)c1CNC(=O)c1cc(-c2ccc(N3C[C@@H](C)O[C@@H](C)C3)nc2)c2c(c1C)OC(C)([C@H]1CC[C@H](N(C)CCc3ccccc3)CC1)O2` (stereo partly drawn) [Compound 112, 7-(6-((2S,6R)-2,6-dimethylmorpholino)pyridin-3-yl)-2,4-dimethyl-2-(trans-4-(methyl(phenethyl)amino)cyclohexyl)-N-((6-methyl-4-(methylthio)-2-oxo-1,2-dihydropyridin-3-yl)methyl)benzo[d][1,3]dioxole-5-carboxamide], for which, in test [1] (Homo sapiens, Pfeiffer, 264 h), the IC50 was not above 10 nM.

Regarding `CSc1cc(C)[nH]c(=O)c1CNC(=O)c1cc(-c2ccc(N3C[C@@H](C)O[C@@H](C)C3)nc2)c2c(c1C)OC(C)([C@H]1CC[C@H](N(C)C3CCCCC3)CC1)O2` (stereo partly drawn) [Compound 114, 2-(trans-4-(cyclohexyl(methyl)amino)cyclohexyl)-7-(6-((2S,6R)-2,6-dimethylmorpholino)pyridin-3-yl)-2,4-dimethyl-N-((6-methyl-4-(methylthio)-2-oxo-1,2-dihydropyridin-3-yl)methyl)benzo[d][1,3]dioxole-5-carboxamide], the IC50 in test [1] (Homo sapiens, Pfeiffer, 264 h) is not above 10 nM. On to `CSc1cc(C)[nH]c(=O)c1CNC(=O)c1cc(-c2ccc(N3C[C@@H](C)O[C@@H](C)C3)nc2)c2c(c1C)OC(C)([C@H]1CC[C@H](N(C)C(=O)C(F)(F)F)CC1)O2` (stereo partly drawn) [Compound 115, 7-(6-((2S,6R)-2,6-dimethylmorpholino)pyridin-3-yl)-2,4-dimethyl-N-((6-methyl-4-(methylthio)-2-oxo-1,2-dihydropyridin-3-yl)methyl)-2-(trans-4-(2,2,2-trifluoro-N-methylacetamido)cyclohexyl)benzo[d][1,3]dioxole-5-carboxamide], for which the IC50 in test [1] (Homo sapiens, Pfeiffer, 264 h) fell in the range of 10 to 100 nM.
